Structures are written as SMILES.

In test [1] the target is T1, recombinant human LTA4 hydrolase (rhLTA4H) (Homo sapiens, UniProt P09960).
T1 construct: made in house; host or cells: Spodoptera frugiperda (Sf-9) cells, recombinant baculovirus (pFastBac1)
T1 sequence (P09960 1-611): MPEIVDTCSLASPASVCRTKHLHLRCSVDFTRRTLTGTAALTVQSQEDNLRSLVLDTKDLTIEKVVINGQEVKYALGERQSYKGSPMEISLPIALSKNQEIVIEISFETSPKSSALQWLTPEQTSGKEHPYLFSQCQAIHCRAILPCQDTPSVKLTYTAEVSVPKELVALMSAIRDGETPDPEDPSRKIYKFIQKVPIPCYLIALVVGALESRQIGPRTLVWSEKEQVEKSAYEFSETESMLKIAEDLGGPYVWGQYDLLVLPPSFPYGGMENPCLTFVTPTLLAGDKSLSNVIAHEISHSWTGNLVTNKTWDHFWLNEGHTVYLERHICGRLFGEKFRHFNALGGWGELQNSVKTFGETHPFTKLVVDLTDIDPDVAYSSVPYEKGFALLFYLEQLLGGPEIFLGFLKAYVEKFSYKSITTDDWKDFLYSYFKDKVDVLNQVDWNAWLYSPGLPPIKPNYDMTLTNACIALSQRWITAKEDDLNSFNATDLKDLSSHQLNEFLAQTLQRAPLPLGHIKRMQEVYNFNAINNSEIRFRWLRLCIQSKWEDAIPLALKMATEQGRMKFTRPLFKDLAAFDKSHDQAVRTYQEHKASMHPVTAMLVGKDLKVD
In words: Recombinant human LTA4 hydrolase assay for LTA4 hydrolase inhibitor activity. The following applies: rhLTA4H, LTA4 substrate, LTB4 by immunoassay; single determination or average; read-out: IC50. The test is classed as biochemical. Put shortly:
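Recombinant human LTA4H from baculovirus-infected Sf-9 cells (10 ng) pre-incubated 10 min at rt with compound (10% DMSO in dilutions), then reacted with free-acid LTA4 for 30 min at rt. LTB4 measured by ELISA; IC50 by nonlinear regression. Values are single determinations or averages.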

Test [2] concerns LTB4 production by calcium ionophore-stimulated murine blood. Kind of test: LTB4 production by calcium ionophore-stimulated murine blood for LTA4H inhibitor activity. The format is cell-based, CD-1 mice. The following applies: Mus musculus; murine blood diluted 1 in 15, calcium ionophore A23187, LTB4 by immunoassay; read-out: IC50. Put shortly:
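Heparinized CD-1 mouse blood pre-incubated with compound 15 min at 37° C, then stimulated with calcium ionophore A23187 (7 μg/mL final) for 30 min. LTB4 in supernatant measured by enzyme immunoassay; values are single or averaged determinations, with SD for n≥3.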

In test [3] the test system is ex vivo stimulated LTB4 production. Kind of test: Murine arachidonic acid-induced inflammation model: ex vivo stimulated LTB4 production (% Inh. LTB4). The following applies: Mus musculus; female Balb/c mice, 30 mg/kg oral gavage; blood taken 3 h after arachidonic acid, ex vivo A23187 stimulation; number of determinations in parentheses. The protocol: (§1) Assay 4: Murine Arachidonic Acid-Induced Inflammation Model
(§2) LTA4H inhibitor compounds of the present invention were dissolved in 20% cyclodextran/H2O at a concentration of 3 mg/mL. The solutions were administered by oral gavage to female Balb/c mice weighing approximately 20 grams each (0.2 mL per mouse, 30 mg of LTA4H inhibitor compound per kg). Sixty minutes after being administered an LTA4 inhibitor, each mouse received topical application of 20 μL of arachidonic acid (100 mg/mL in acetone) to the left ear and 20 μL of acetone only to the right ear. After 3 h, the mice were sacrificed, blood was withdrawn in heparinized syringes, and 8 mm ear biopsies were taken. Ear biopsies were weighed to determine edema and then frozen at −80° C. until needed for determination of neutrophil influx.
One hundred-microliter aliquots of heparinized blood were added to wells of a microtiter plate, along with equal volumes of RPMI-1640 medium, and calcium ionophore A23187 was added to each sample well (final concentration=[…]). The microtiter plate contents were incubated for 30 min at 37° C. in a humidified incubator. The reaction was terminated by centrifugation (833×g, 10 min at 4° C.). Supernatants were analyzed for LTB4 by a commercially available enzyme-linked immunoassay (Cayman Chemical Co.) in accordance with the manufacturer's instructions. The percent inhibition of ex vivo stimulated LTB4 production (% Inh. LTB4) was determined by comparison to animals treated identically except that the solution administered by oral gavage was devoid of inhibitor compound.
(§3) The number of determinations is indicated in parentheses following each value

The subject of another test is neutrophil influx. Kind of test: Murine arachidonic acid-induced inflammation model: neutrophil influx in ear, myeloperoxidase activity (% Inh. MPO). The following applies: Mus musculus, female Balb/c mice, 30 mg/kg oral gavage, ear biopsy 3 h after topical arachidonic acid, number of determinations in parentheses. The format is in vivo. The protocol: as §1, §2
Neutrophil influx was quantified by measuring the activity of myeloperoxidase (MPO), a neutrophil-specific enzyme. The ear biopsies were homogenized in 0.5 mL extraction buffer (0.3 M sucrose, 0.22% (w/v) hexadecyl trimethyl ammonium bromide (CTAB), and 2.5 mM citrate prepared from 0.5 M citrate stock solution (pH 5.0)), in a Fast-Prep-24 (MP™) (40 seconds at 6 mps). Debris was removed by centrifugation at 14000×g for 10 min. Aliquots of 10 μL of the resulting supernatant were added to wells of a microtiter plate, along with 90-μL aliquots of dilution buffer (10 mM citrate, 0.22% CTAB), followed by addition of 20 μL TMB liquid substrate system (Sigma Chemical Co.) to each sample well. The microtiter plate contents were held at room temperature until the sample with the highest concentration of MPO reached an absorbance value of 0.4 at 650 nm. The reaction was stopped by addition of 50 μL 1 M H2SO4 to each sample well, and the myeloperoxidase activity in each sample was determined from the absorbance at 405 nm. The background value from the right ear, treated only with acetone, was subtracted from that for the left ear, treated with arachidonic acid in acetone, for each animal. The percent inhibition of neutrophil influx (% Inh. MPO) by compounds of the invention was determined by comparison to animals treated identically, except that the solution administered by oral gavage was devoid of inhibitor compound.
as §3

By IC50 is commonly meant the concentration that gives 50% inhibition. As a reminder, the inhibition is the change of the read-out against control, counted positive when it falls. The term inhibition in vivo denotes the relative decrease from the control value, in per cent. As to `CCN(CCO)CCc1ccc(Oc2nc3ncccc3s2)cc1` [Example 56, 2-(Ethyl{2-[4-([1,3]thiazolo[4,5-b]pyridin-2-yloxy)phenyl]ethyl}amino)ethanol], the IC50 in test [1] came to 1.9 nM; in test [2] it was 5 nM. Also, the inhibition at 30 mg/kg in test [3] came to 71.2%. In the test with neutrophil influx, the inhibition in vivo at 30 mg/kg stood at 81.6%.

In the case of `NC(=O)C1CCN(CCc2ccc(Oc3nc4ncccc4s3)cc2)CC1` [Example 66, 1-{2-[4-([1,3]Thiazolo[4,5-b]pyridin-2-yloxy)phenyl]ethyl}piperidine-4-carboxamide], the IC50 in test [1] was 12 nM; in test [2], 40 nM. In test [3], the inhibition at 30 mg/kg is 76.2%. For the same molecule, the inhibition in vivo at 30 mg/kg in the test on neutrophil influx is 60%.

Regarding `CN(C)CCC1CCCCN1Cc1ccc(Oc2nc3ncccc3s2)cc1` (stereo not shown) [Example 258, N,N-Dimethyl-2-{1-[4-([1,3]thiazolo[4,5-b]pyridin-2-yloxy)benzyl]piperidin-2-yl}ethanamine], the IC50 was found to be 2 nM in test [1] and 47 nM in test [2]. In addition, the inhibition at 30 mg/kg in test [3] is 75%. Besides, the inhibition in vivo at 30 mg/kg in the test with neutrophil influx turned out to be 13.8%.

Take `OC[C@@H]1CCCN1Cc1ccc(Oc2nc3ncccc3s2)cc1` [Example 108, {(2S)-1-[4-([1,3]Thiazolo[4,5-b]pyridin-2-yloxy)benzyl]pyrrolidin-2-yl}methanol]: the IC50 turned out to be 2.4 nM in test [1] and 8 nM in test [2]. Also, the inhibition at 30 mg/kg in test [3] was 79.8%. Also, the inhibition in vivo at 30 mg/kg in the test on neutrophil influx is 71.4%.

For the molecule `c1cnc2nc(Oc3ccc(OCCN4CCCCC4)cc3)sc2c1` [Example 10, 2-[4-(2-Piperidin-1-ylethoxy)phenoxy][1,3]thiazolo[4,5-b]pyridine], the IC50 in test [1] came out at 5 nM; in test [2], 19 nM. Also, the inhibition at 30 mg/kg in test [3] was found to be 68%. Also, the inhibition in vivo at 30 mg/kg in the test on neutrophil influx was 62.2%.

In the case of `CC(=O)N1CC2CN(Cc3ccc(Oc4nc5ncccc5s4)cc3)CC2C1` (stereo not shown) [Example 276, 2-{4-[(5-Acetylhexahydropyrrolo[3,4-c]pyrrol-2(1H)-yl)methyl]phenoxy}[1,3]thiazolo[4,5-b]pyridine], the IC50 was found to be 3 nM in test [1] and 10 nM in test [2]. Further, the inhibition at 30 mg/kg in test [3] was 57.4%. Besides, in the test on neutrophil influx, the inhibition in vivo at 30 mg/kg is 94.9%.

In the case of `CC(=O)N[C@H]1C[C@H]2CC[C@@H](C1)N2CCOc1ccc(Oc2nc3ncccc3s2)cc1` [Example 16, meso-N-[(3-endo)-8-{2-[4-([1,3]Thiazolo[4,5-b]pyridin-2-yloxy)phenoxy]ethyl}-8-azabicyclo[3.2.1]oct-3-yl]acetamide], the IC50 was 3 nM in test [1] and 26 nM in test [2]. For the same molecule, the inhibition at 30 mg/kg in test [3] is 84.6%. Besides, the inhibition in vivo at 30 mg/kg in the test with neutrophil influx was 73.6%.

Consider `NC(=O)N1C[C@H]2C[C@@H]1CN2CCc1ccc(Oc2nc3ncccc3s2)cc1` [Example 80, (1R,4R)-5-{2-[4-([1,3]Thiazolo[4,5-b]pyridin-2-yloxy)phenyl]ethyl}-2,5-diazabicyclo[2.2.1]heptane-2-carboxamide], for which the 50% inhibitory concentration (IC50) in test [1] turned out to be 2 nM; in test [2] it was 80 nM. Further, the inhibition at 30 mg/kg in test [3] amounted to 72.1%. In the test on neutrophil influx, the inhibition in vivo at 30 mg/kg amounted to 37%.

In the case of `CC(=O)N[C@H]1C[C@H]2CC[C@@H](C1)N2Cc1ccc(Oc2nc3ncc(F)cc3s2)cc1` [Example 288], the IC50 in test [1] was determined as 15 nM; in test [2], 104 nM. Further, in test [3], the inhibition at 30 mg/kg came to 61.7%. Moreover, the inhibition in vivo at 30 mg/kg in the test on neutrophil influx turned out to be 94.6%.

As for `CC(=O)N[C@H]1C[C@H]2CC[C@@H](C1)N2Cc1ccc(Oc2nc3ncc(Cl)cc3s2)cc1` [Example 287, meso-endo-N-[8-{4-[(6-Chloro[1,3]thiazolo[4,5-b]pyridin-2-yl)oxy]benzyl}-8-azabicyclo[3.2.1]oct-3-yl]acetamide], the values for the IC50 in test [1] and in test [2] were 3 nM and 110 nM, respectively. Also, in test [3], the inhibition at 30 mg/kg was 89.8%. Besides, in the test on neutrophil influx, the inhibition in vivo at 30 mg/kg worked out at 86.7%.
